In ChEMBL document CHEMBL5728937, “Substituted tetrahydroquinolinone compounds as ROR gamma modulators” (2022):

Molecular target: T1, Nuclear receptor ROR-gamma (Homo sapiens, UniProt P51449)
T1 sequence (P51449 whole entry): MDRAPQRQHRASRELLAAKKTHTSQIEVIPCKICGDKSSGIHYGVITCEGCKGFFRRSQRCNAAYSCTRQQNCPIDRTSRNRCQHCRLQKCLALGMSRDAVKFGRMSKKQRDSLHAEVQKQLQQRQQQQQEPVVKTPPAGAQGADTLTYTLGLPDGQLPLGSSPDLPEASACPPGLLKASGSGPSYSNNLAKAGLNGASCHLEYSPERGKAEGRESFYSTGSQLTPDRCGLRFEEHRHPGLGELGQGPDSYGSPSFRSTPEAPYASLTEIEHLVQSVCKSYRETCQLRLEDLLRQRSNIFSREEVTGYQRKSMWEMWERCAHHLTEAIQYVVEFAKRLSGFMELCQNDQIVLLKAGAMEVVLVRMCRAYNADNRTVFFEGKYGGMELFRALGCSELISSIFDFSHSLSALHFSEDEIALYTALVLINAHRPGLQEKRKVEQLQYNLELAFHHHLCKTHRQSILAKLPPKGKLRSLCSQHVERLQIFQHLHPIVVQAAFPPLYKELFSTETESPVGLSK
Assay: Radio-Ligand Binding Assay: ROR gamma radioligand binding was performed using 3H 25-Hydroxycholesterol in a competitive displacement assay using dextran charcoal method. Using 5 nM 3H 25-Hydroxycholesterol with 300 ng RORγ LBD (in house expressed in E. coli) along with the compound were incubated in the binding buffer (50 mM HEPES, pH 7.5, 150 mM NaCl, 0.01% BSA and 5 mM MgCl2) for 30 min at room temperature. Then dextran-charcoal mixture (0.5% charcoal: 0.05% dextran) was used for separation and the supernatant was read on the Perkin Elmer Trilux Microbeta counter. Dose response curves were generated for 10 compound concentrations using GraphPad Prism software Version 5 (San Diego, Calif., USA) using non-linear regression curve fit for sigmoidal dose response (variable slope).

IC50: > 300 nM
Structure (SMILES): CCS(=O)(=O)c1ccc(CC(=O)Nc2cc(C)c3c(n2)CCC(C)(c2ccc(OC)nn2)C3=O)cc1 (single isomer, unassigned)
